Experimental data taken from PubChem BioAssay AID248 (DTP/NCI, 2004).
Values joined by “and” are separate entries in the source; they are usually repeats but may differ in a detail not shown here. Equal values may be shown once. Inconclusive results and toxic doses are left out. Cut-off read from the data, not from the text of the source: active = T/C of 150% or more; inactive = T/C below 125%.

Test system: L1210 leukemia ip in BDF1 mice, survival T/C
Assay: NCI In Vivo Anticancer Drug Screen. Data for tumor model L1210 Leukemia (intraperitoneal) in B6D2F1 (BDF1) mice
Conditions: endpoint: mean survival time, higher = longer survival
Outline: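 Tumor cells were implanted, animals were treated, and survival was followed. The result divides the treated measurement by the vehicle-control measurement.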

[1] = dose: 100.0 mg/kg/injection, schedule: Q01DX009 (ip), vehicle: Klucel (hydroxypropylcellulose) (HPC)
[2] = dose: 200.0 mg/kg/injection, schedule: Q01DX009 (ip), vehicle: Klucel (hydroxypropylcellulose) (HPC)
[3] = dose: 400.0 mg/kg/injection, schedule: Q01DX009 (ip), vehicle: Klucel (hydroxypropylcellulose) (HPC)
[4] = dose: 100.0 mg/kg/injection, schedule: Q04DX003 (ip), vehicle: saline
[5] = dose: 200.0 mg/kg/injection, schedule: Q04DX003 (ip), vehicle: saline
[6] = dose: 400.0 mg/kg/injection, schedule: Q04DX003 (ip), vehicle: saline
[7] = dose: 100.0 mg/kg/injection, schedule: Q01DX009 (ip), vehicle: saline with Tween-80
[8] = dose: 100.0 mg/kg/injection, schedule: Q04DX003 (ip), vehicle: saline with Tween-80
[9] = dose: 200.0 mg/kg/injection, schedule: Q01DX009 (ip), vehicle: saline with Tween-80
[10] = dose: 200.0 mg/kg/injection, schedule: Q04DX003 (ip), vehicle: saline with Tween-80
[11] = dose: 400.0 mg/kg/injection, schedule: Q01DX009 (ip), vehicle: saline with Tween-80
[12] = dose: 400.0 mg/kg/injection, schedule: Q04DX003 (ip), vehicle: saline with Tween-80
[13] = dose: 100.0 mg/kg/injection, schedule: Q04DX002 (ip), vehicle: saline with Tween-80
[14] = dose: 200.0 mg/kg/injection, schedule: Q04DX002 (ip), vehicle: saline with Tween-80
[15] = dose: 50.0 mg/kg/injection, schedule: Q01DX009 (ip), vehicle: saline with Tween-80
[16] = dose: 100.0 mg/kg/injection, schedule: Q01DX001 (ip), vehicle: Klucel (hydroxypropylcellulose) (HPC)
[17] = dose: 100.0 mg/kg/injection, schedule: Q04DX003 (ip), vehicle: Klucel (hydroxypropylcellulose) (HPC)
[18] = dose: 200.0 mg/kg/injection, schedule: Q01DX001 (ip), vehicle: Klucel (hydroxypropylcellulose) (HPC)
[19] = dose: 200.0 mg/kg/injection, schedule: Q04DX003 (ip), vehicle: Klucel (hydroxypropylcellulose) (HPC)
[20] = dose: 400.0 mg/kg/injection, schedule: Q01DX001 (ip), vehicle: Klucel (hydroxypropylcellulose) (HPC)
[21] = dose: 400.0 mg/kg/injection, schedule: Q04DX003 (ip), vehicle: Klucel (hydroxypropylcellulose) (HPC)
[22] = dose: 50.0 mg/kg/injection, schedule: Q01DX009 (ip), vehicle: Klucel (hydroxypropylcellulose) (HPC)

Measured: T/C

C[P+]1(C)CC=C2CCCCC21 (stereo not given)
inactive: dose: 12.5 mg/kg/injection, schedule: Q04DX002 (ip), vehicle: saline with Tween-80 100 % of control | dose: 25.0 mg/kg/injection, schedule: Q04DX002 (ip), vehicle: saline with Tween-80 98 % of control | dose: 50.0 mg/kg/injection, schedule: Q04DX002 (ip), vehicle: saline with Tween-80 98 % of control

Nc1ccccc1SC(CC(=O)c1ccccc1)c1c(Cl)cccc1Cl (stereo not given)
inactive: dose: 100.0 mg/kg/injection, schedule: Q01DX005 (ip), vehicle: Klucel (hydroxypropylcellulose) (HPC) 94 % of control | dose: 100.0 mg/kg/injection, schedule: Q04DX002 (ip), vehicle: Klucel (hydroxypropylcellulose) (HPC) 110 % of control | dose: 200.0 mg/kg/injection, schedule: Q01DX005 (ip), vehicle: Klucel (hydroxypropylcellulose) (HPC) 108 % of control | dose: 200.0 mg/kg/injection, schedule: Q04DX002 (ip), vehicle: Klucel (hydroxypropylcellulose) (HPC) 95 % of control | dose: 400.0 mg/kg/injection, schedule: Q01DX005 (ip), vehicle: Klucel (hydroxypropylcellulose) (HPC) 94 % of control | dose: 400.0 mg/kg/injection, schedule: Q04DX002 (ip), vehicle: Klucel (hydroxypropylcellulose) (HPC) 95 % of control

CC(C)=NNC(=O)C1CC=CC1C(Cl)Cl (stereo not given)
inactive: [1] 96 % of control | [2] 98 % of control | [3] 93 % of control

Cc1cc(O)cc(=O)[nH]1
inactive: dose: 100.0 mg/kg/injection, schedule: Q01DX001 (ip), vehicle: saline 97 % of control | dose: 200.0 mg/kg/injection, schedule: Q01DX001 (ip), vehicle: saline 100 % of control

C/C(=C(/CCO)SCCC(=O)c1ccccc1)N(C=O)Cc1cnc(C)nc1N
inactive: [4] 101 % of control | [5] 93 % of control | [6] 93 % of control

CC(C)OP(=O)(Cc1ccccc1CBr)OC(C)C
inactive: dose: 100.0 mg/kg/injection, schedule: Q04DX002 (ip), vehicle: saline 109 % of control | dose: 200.0 mg/kg/injection, schedule: Q04DX002 (ip), vehicle: saline 102 % of control | dose: 400.0 mg/kg/injection, schedule: Q04DX002 (ip), vehicle: saline 109 % of control

CCOC(OCC)c1c(Cl)cccc1Cl
inactive: [7] 98 % of control | [8] 99 % of control | [9] 88 % of control | [10] 93 % of control | [11] 101 % of control | [12] 93 % of control

CCOC(=O)c1ccc(NC(=O)N2CCCCC2C)cc1 (stereo not given)
inactive: dose: 100.0 mg/kg/injection, schedule: Q01DX001 (ip), vehicle: saline with Tween-80 93 % of control | [7] 104 % of control | [13] 97 % of control and 99 % of control | [8] 88 % of control | dose: 200.0 mg/kg/injection, schedule: Q01DX001 (ip), vehicle: saline with Tween-80 89 % of control | [9] 104 % of control | [14] 92 % of control and 100 % of control | [10] 96 % of control | dose: 400.0 mg/kg/injection, schedule: Q01DX001 (ip), vehicle: saline with Tween-80 91 % of control | [11] 97 % of control | dose: 400.0 mg/kg/injection, schedule: Q04DX002 (ip), vehicle: saline with Tween-80 94 % of control and 99 % of control | [12] 96 % of control

CC(C)(C)SCC#CCSC(C)(C)C
inactive: [15] 100 % of control | [7] 118 % of control | [13] 103 % of control | [9] 96 % of control | [14] 100 % of control

CCN(CC)CCNc1ccc(N=Nc2ccc(SC)cc2)c2ccccc12
inactive: dose: 6.25 mg/kg/injection, schedule: Q01DX015 (ip), vehicle: carboxymethylcellulose (CMC) 91 % of control | dose: 12.5 mg/kg/injection, schedule: Q01DX015 (ip), vehicle: carboxymethylcellulose (CMC) 93 % of control | dose: 25.0 mg/kg/injection, schedule: Q01DX015 (ip), vehicle: carboxymethylcellulose (CMC) 86 % of control | [15] 94 % of control | dose: 50.0 mg/kg/injection, schedule: Q01DX015 (ip), vehicle: carboxymethylcellulose (CMC) 87 % of control | dose: 50.0 mg/kg/injection, schedule: Q04DX003 (ip), vehicle: saline 96 % of control | [7] 103 % of control | [4] 89 % of control | [5] 88 % of control

CC1=CC(=O)N(NC(N)=O)C1=O
inactive: [8] 94 % of control | [9] 90 % of control | [10] 102 % of control | [12] 105 % of control

C1CN(CC2COC(CN3CCOCC3)CO2)CCO1 (stereo not given)
inactive: [4] 106 % of control | [5] 97 % of control | [6] 98 % of control

COC(=O)C(=[N+]=[N-])C(=O)OC
inactive: [16] 92 % of control | [1] 98 % of control | [17] 102 % of control | [18] 92 % of control | [2] 98 % of control | [19] 101 % of control | [20] 93 % of control | [3] 107 % of control | [21] 104 % of control

CN(C)N=Nc1c(Cl)cc(Cl)cc1Cl
inactive: [15] 107 % of control | [7] 100 % of control | [9] 107 % of control

O=C(c1ccccc1)N(O)c1ccccc1
inactive: dose: 75.0 mg/kg/injection, schedule: Q01DX001 (ip), vehicle: saline 93 % of control | dose: 75.0 mg/kg/injection, schedule: Q01DX009 (ip), vehicle: saline 91 % of control | dose: 150.0 mg/kg/injection, schedule: Q01DX001 (ip), vehicle: saline 104 % of control | dose: 150.0 mg/kg/injection, schedule: Q01DX009 (ip), vehicle: saline 98 % of control | dose: 300.0 mg/kg/injection, schedule: Q01DX001 (ip), vehicle: saline 95 % of control | dose: 300.0 mg/kg/injection, schedule: Q01DX009 (ip), vehicle: saline 96 % of control

Nc1cccc2c1-c1ccccc1/C2=N\O
inactive: dose: 100.0 mg/kg/injection, schedule: Q01DX001 (ip), vehicle: carboxymethylcellulose (CMC) 97 % of control | dose: 200.0 mg/kg/injection, schedule: Q01DX001 (ip), vehicle: carboxymethylcellulose (CMC) 105 % of control | dose: 400.0 mg/kg/injection, schedule: Q01DX001 (ip), vehicle: carboxymethylcellulose (CMC) 103 % of control

O=c1[nH]nc2ccccn12
inactive: [16] 96 % of control | [17] 101 % of control | [18] 102 % of control | [19] 101 % of control | [20] 96 % of control | [21] 95 % of control

O=c1[nH]c2ccsc2c(=O)n1O
inactive: [4] 102 % of control | [5] 97 % of control

Oc1ccc(/C=N/Nc2nc3ccccc3s2)c(O)c1
inactive: dose: 222.0 mg/kg/injection, schedule: Q01DX Z (ip), vehicle: methylcellulose (MC) 88 % of control | dose: 333.0 mg/kg/injection, schedule: Q01DX Z (ip), vehicle: methylcellulose (MC) 91 % of control | dose: 500.0 mg/kg/injection, schedule: Q01DX Z (ip), vehicle: methylcellulose (MC) 94 % of control

O=C(O)c1ccc(OC(F)(F)C(F)Cl)cc1 (stereo not given)
inactive: [22] 100 % of control | [1] 98 % of control

C=CCn1c(-c2cccs2)nc2c(=S)nc[nH]c21
inactive: dose: 65.0 mg/kg/injection, schedule: Q01DX009 (ip), vehicle: steriod suspending solution 95 % of control | dose: 180.0 mg/kg/injection, schedule: Q01DX009 (ip), vehicle: steriod suspending solution 88 % of control | dose: 400.0 mg/kg/injection, schedule: Q01DX001 (ip), vehicle: steriod suspending solution 89 % of control | dose: 800.0 mg/kg/injection, schedule: Q01DX001 (ip), vehicle: steriod suspending solution 89 % of control

O=C(CCCCc1ccc([N+](=O)[O-])cc1)Nc1ccc(S(=O)(=O)F)cc1
inactive: [22] 102 % of control | [1] 100 % of control | [2] 88 % of control
